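Assay format: 96-well plates, 48-hour exposure. At the GI50, growth is halved. TGI: total growth inhibition.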
Experiments:
Assay in all cases: NCI-60 cell line screen, 48 h
[1] = tested on: MDA-MB-231 breast
[2] = tested on: HOP-92 NSCLC
[3] = tested on: PC-3 prostate
[4] = tested on: DU-145 prostate
[5] = tested on: NCI/ADR-RES ovarian
[6] = tested on: T-47D breast
[7] = tested on: NCI-H460 lung
[8] = tested on: SN12C renal
[9] = tested on: OVCAR-8 ovarian
[10] = tested on: SF-268 CNS

Structure (SMILES): Nc1n[nH]c2cccc(C#Cc3cccc(C(=O)Nc4cc(CN5CCOCC5)cc(C(F)(F)F)c4)c3)c12
- GI50 [1]: 1.65 µM
- TGI [1]: 6.8 µM
- GI50 [2]: 2780 nM
- TGI [2]: 9.61 µM
- GI50 [3]: 4.39 µM
- TGI [3]: 19 µM
- GI50 [4]: 9.82 µM
- TGI [4]: 23.8 µM
- GI50 [5]: 4590 nM
- TGI [5]: 23.3 µM
- GI50 [6]: 2.23 µM
- TGI [6]: 10.2 µM
- GI50 [7]: 4110 nM
- TGI [7]: 16.9 µM
- GI50 [8]: 3.71 µM
- TGI [8]: 16.4 µM
- GI50 [9]: 4.63 µM
- TGI [9]: 20.6 µM
- GI50 [10]: 5.66 µM
- TGI [10]: 22.1 µM

Structure (SMILES): CCCCNC(=O)NS(=O)(=O)c1ccc(N2N=C(c3cc(C)ccc3C)CC2c2cc(OC)c(OC)c(OC)c2)cc1 (stereo not given)
- GI50 [1]: 2.36 µM
- TGI [1]: 6.39 µM
- GI50 [2]: 1270 nM
- TGI [2]: 4.63 µM
- GI50 [3]: 1.94 µM
- TGI [3]: 10.4 µM
- GI50 [4]: 3.46 µM
- TGI [4]: 11.1 µM
- GI50 [5]: 2950 nM
- TGI [5]: 11.4 µM
- GI50 [6]: 3.91 µM
- TGI [6]: 18.4 µM
- GI50 [7]: 2460 nM
- TGI [7]: 5.96 µM
- GI50 [8]: 3.36 µM
- TGI [8]: 13.4 µM
- GI50 [9]: 3.03 µM
- TGI [9]: 10.5 µM
- GI50 [10]: 3.16 µM
- TGI [10]: 11.7 µM

Structure (SMILES): c1ccc(CSc2nnc3c4ccccc4c4ccccc4c3n2)cc1
- TGI [1]: > 100 µM
- TGI [2]: 59.7 µM
- TGI [3]: > 100 µM
- TGI [4]: > 100 µM
- TGI [5]: > 100 µM
- TGI [6]: > 100 µM
- TGI [7]: > 100 µM
- TGI [8]: > 100 µM
- TGI [9]: > 100 µM
- TGI [10]: 67.9 µM

Structure (SMILES): CCN1C(=O)N(CC)C2C1NN=c1s/c(=C\c3cc4ccccc4[nH]3)c(=O)n12 (stereo not given)
- GI50 [1]: 0.0118 µM
- TGI [1]: 27 µM
- GI50 [2]: 68.1 nM
- TGI [2]: 6.28 µM
- GI50 [3]: < 0.015 µM
- TGI [3]: > 100 µM
- GI50 [4]: 0.0225 µM
- TGI [4]: > 100 µM
- GI50 [5]: 21.3 nM
- TGI [5]: 2.3 µM
- GI50 [6]: 0.0348 µM
- TGI [6]: 5.94 µM
- GI50 [7]: 33.1 nM
- TGI [7]: 14.8 µM
- GI50 [8]: 0.0241 µM
- TGI [8]: 14.6 µM
- GI50 [9]: < 0.0191 µM
- TGI [9]: 31.3 µM
- GI50 [10]: < 0.0229 µM
- TGI [10]: 20.4 µM

Structure (SMILES): O=C(CCCSc1nc(-c2ccccc2)cc(-c2ccc(Cl)cc2)n1)NO
- GI50 [1]: 2.12 µM
- TGI [1]: 11.6 µM
- GI50 [2]: 2290 nM
- TGI [2]: 8.26 µM
- GI50 [3]: 2.19 µM
- TGI [3]: 12.3 µM
- GI50 [4]: 1.39 µM
- TGI [4]: 8.94 µM
- GI50 [5]: 351 nM
- TGI [5]: 2.58 µM
- GI50 [6]: 1.92 µM
- TGI [6]: 16.2 µM
- GI50 [7]: 558 nM
- TGI [7]: 7.29 µM
- GI50 [8]: 1.18 µM
- TGI [8]: 7.72 µM
- GI50 [9]: 0.596 µM
- TGI [9]: 16.2 µM
- GI50 [10]: 1.88 µM
- TGI [10]: 7.14 µM

Structure (SMILES): Cc1cn2c(/C=N/Nc3ccccn3)c(-c3ccc(Cl)c([N+](=O)[O-])c3)nc2s1
- GI50 [1]: 6.73 µM
- TGI [1]: 18.2 µM
- GI50 [2]: 12900 nM
- TGI [2]: > 50 µM
- GI50 [3]: 20.8 µM
- TGI [3]: > 50 µM
- GI50 [4]: 6.39 µM
- TGI [4]: 29.8 µM
- GI50 [5]: 11300 nM
- TGI [5]: 30.9 µM
- GI50 [6]: > 50 µM
- TGI [6]: > 50 µM
- GI50 [7]: 5300 nM
- TGI [7]: 22.3 µM
- GI50 [8]: 14.3 µM
- TGI [8]: 42.4 µM
- GI50 [9]: 8.96 µM
- TGI [9]: 19.8 µM
- GI50 [10]: 11.6 µM
- TGI [10]: 31.7 µM

Structure (SMILES): O=C(c1cccnc1)c1cc(-c2ccccn2)c(=O)n2ccccc12
- GI50 [1]: > 100 µM
- TGI [1]: > 100 µM
- GI50 [2]: > 100000 nM
- TGI [2]: > 100 µM
- GI50 [3]: > 100 µM
- TGI [3]: > 100 µM
- GI50 [4]: > 100 µM
- TGI [4]: > 100 µM
- GI50 [5]: > 100000 nM
- TGI [5]: > 100 µM
- GI50 [6]: > 100 µM
- TGI [6]: > 100 µM
- GI50 [7]: > 100000 nM
- TGI [7]: > 100 µM
- GI50 [8]: > 100 µM
- TGI [8]: > 100 µM
- GI50 [9]: > 100 µM
- TGI [9]: > 100 µM
- GI50 [10]: > 100 µM
- TGI [10]: > 100 µM

Structure (SMILES): COc1ccc2c(c1)C(C)Cc1c(Cl)nc(C)nc1N2C (stereo not given)
- GI50 [1]: 4.34 µM
- TGI [1]: 34.9 µM
- GI50 [2]: 3950 nM
- TGI [2]: 29.5 µM
- GI50 [3]: 2.99 µM
- TGI [3]: > 100 µM
- GI50 [4]: 3.72 µM
- TGI [4]: 33.5 µM
- GI50 [5]: 1700 nM
- TGI [5]: 16.7 µM
- GI50 [6]: 3.43 µM
- TGI [6]: > 100 µM
- GI50 [7]: 3090 nM
- TGI [7]: 15.4 µM
- GI50 [8]: 7.22 µM
- TGI [8]: 25.1 µM
- GI50 [9]: 3.58 µM
- TGI [9]: 15.4 µM
- GI50 [10]: 2.6 µM
- TGI [10]: 18.6 µM

Structure (SMILES): Cc1ccc2c(c1)C(=O)c1c-2n(CCCBr)c(=O)c2cc([N+](=O)[O-])ccc12
- GI50 [1]: 58.8 µM
- TGI [1]: > 100 µM
- GI50 [2]: 29400 nM
- TGI [2]: > 100 µM
- GI50 [3]: 17.4 µM
- TGI [3]: > 100 µM
- GI50 [4]: 49.8 µM
- TGI [4]: > 100 µM
- GI50 [5]: 54700 nM
- TGI [5]: > 100 µM
- GI50 [6]: 7.69 µM
- TGI [6]: 60.8 µM
- GI50 [7]: 6430 nM
- TGI [7]: > 100 µM
- GI50 [8]: 46.4 µM
- TGI [8]: > 100 µM
- GI50 [9]: > 100 µM
- TGI [9]: > 100 µM
- GI50 [10]: 46.9 µM
- TGI [10]: > 100 µM

Structure (SMILES): O=C(CN(/C=C/C(=O)C(F)(F)F)c1ccccc1)c1ccc(Cl)c(Cl)c1
- GI50 [1]: 12.8 µM
- TGI [1]: 26.3 µM
- GI50 [2]: 17700 nM
- TGI [2]: 38.5 µM
- GI50 [3]: 13.3 µM
- TGI [3]: 26.9 µM
- GI50 [4]: 13 µM
- TGI [4]: 30.6 µM
- GI50 [5]: 15200 nM
- TGI [5]: 31.3 µM
- GI50 [6]: 15.8 µM
- TGI [6]: 55.7 µM
- GI50 [7]: 17500 nM
- TGI [7]: 44.9 µM
- GI50 [8]: 15.1 µM
- TGI [8]: 28.3 µM
- GI50 [9]: 16.6 µM
- TGI [9]: 33 µM
- GI50 [10]: 18.4 µM
- TGI [10]: 40.7 µM

Structure (SMILES): COc1cc(C2CC(c3ccc(N(C)C)cc3)=NN2C(C)=O)cc(OC)c1OC (stereo not given)
- GI50 [1]: 4.74 µM
- TGI [1]: > 100 µM
- GI50 [2]: 29600 nM
- TGI [2]: > 100 µM
- GI50 [3]: 1.42 µM
- TGI [3]: > 100 µM
- GI50 [4]: 2.29 µM
- TGI [4]: > 35 µM
- GI50 [5]: 3780 nM
- TGI [5]: > 100 µM
- GI50 [6]: > 24.7 µM
- TGI [6]: > 100 µM
- GI50 [7]: 1410 nM
- TGI [7]: > 100 µM
- GI50 [8]: 11.3 µM
- TGI [8]: > 100 µM
- GI50 [9]: 6.13 µM
- TGI [9]: > 100 µM
- GI50 [10]: 3.69 µM
- TGI [10]: > 100 µM

Structure (SMILES): CCNCCNc1cc(C2CCCCC2)c(C#N)c2nc3ccccc3n12
- GI50 [1]: 1.95 µM
- TGI [1]: 3.62 µM
- GI50 [2]: 2280 nM
- TGI [2]: 4.08 µM
- GI50 [3]: 4.81 µM
- TGI [3]: 16 µM
- GI50 [4]: 2.37 µM
- TGI [4]: 5.79 µM
- GI50 [5]: 2350 nM
- TGI [5]: 6.82 µM
- GI50 [6]: 1.58 µM
- TGI [6]: 3.42 µM
- GI50 [7]: 1780 nM
- TGI [7]: 3.28 µM
- GI50 [8]: 1.93 µM
- TGI [8]: 4.02 µM
- GI50 [9]: 2.93 µM
- TGI [9]: 7.99 µM
- GI50 [10]: 1.9 µM
- TGI [10]: 4.38 µM

Structure (SMILES): O=C(N/N=C/c1cc([N+](=O)[O-])ccc1O)c1cccc2ccccc12
- GI50 [1]: 7.6 µM
- TGI [1]: > 100 µM
- GI50 [2]: 1260 nM
- TGI [2]: 13 µM
- GI50 [3]: 6.85 µM
- TGI [3]: 64.9 µM
- GI50 [4]: 6.2 µM
- TGI [4]: > 100 µM
- GI50 [5]: 2320 nM
- TGI [5]: 51.6 µM
- GI50 [6]: 3.28 µM
- TGI [6]: 23.3 µM
- GI50 [7]: 2750 nM
- TGI [7]: > 100 µM
- GI50 [8]: 6.62 µM
- TGI [8]: > 100 µM
- GI50 [9]: 2.88 µM
- TGI [9]: > 100 µM
- GI50 [10]: 4.12 µM
- TGI [10]: > 100 µM
